From patent US6872850B2, “Small molecule inhibitors of secretion of proteins encoded by ARE-mRNAs” (Message Pharmaceuticals, priority 2001, dated 2005) come the findings set out here.

The test system of test [1] is 3′ UTR of the TNFα gene. The experiment in a line: cell-based luciferase reporter assay, 5B cell line (luciferase gene with entire 3′ UTR of the TNFα gene). Details: species or system mouse. Particulars: for Luciferase 5B (% of DMSO control): 1 h, then LPS, 5B cell line. A general note: A reporter such as luciferase makes a cellular process visible.
Test [2] deals with TNFα. The experiment in a line: ELISA of TNFα secreted into the media after LPS. The format is cell-based. To be noted: for effect on amount of secreted TNFα (direct TNFα secretion assay), in words: after LPS stimulation. On the procedure:
The ability of candidate compounds to reduce the amount of secreted TNFα was also directly tested using an ELISA assay. […] A standard ELISA analysis was used to measure the amount of TNFα secreted into the media (see, for example, Ausubel et al., supra). The effect of a candidate compound on TNFα secretion in this assay is reported in the following tables as a percentage of the amount of TNFα secreted by a control cell that was administered a DMSO vehicle control only.
Background: An ELISA detects its analyte on a solid surface through an enzyme-linked reagent.

Where [3] appears, read: 10 μM compound, ratio of 5B to control 3B cell line.

On to `CC(=NN=C(N)N)c1cccc(C(=O)NC(Cc2ccccc2)C(=O)N2CCN(C(=O)C(CC(C)C)NC(=O)c3ccc(C(=NN=C(N)N)c4ccccc4)cc3)CC2)c1` (mixture of isomers) [MES 11405], for which, in test [1], the “effect on luciferase activity in the 5B cell line (luciferase assay), in words” value (“effect on luciferase activity” below) is listed as “decrease TNFα secretion”. In addition, the “Luciferase 5B (% of DMSO control)” value in test [1] (10 μM compound) was 39 % of DMSO control. Further, in test [1] (setting [3]), the “Luciferase 5B/3B (% of DMSO control 5B)/(% of DMSO control 3B)” value is given as 49 (% of DMSO control 5B)/(% of D. Besides, the “TNFα Secretion (% of DMSO control)” value in test [2] (10 μM compound, 1 h, then LPS) is listed as 55 % of DMSO control. The “effect on amount of secreted TNFα (direct TNFα secretion assay), in words” value (shortened to “effect on amount of secreted TNFα”) in test [2] is recorded as “decreased the amount of secreted TNFα”.
Regarding `C/C(=N\NC(=N)N)c1cccc(C(=O)N[C@@H](CC(C)C)C(=O)N2CCN(C(=O)[C@H](Cc3ccccc3)NCc3ccc(-c4ccccc4)cc3)CC2)c1` [MES 10244], in test [1] (10 μM compound), the “Luciferase 5B (% of DMSO control)” value is listed as 46 % of DMSO control. Moreover, the “Luciferase 5B/3B (% of DMSO control 5B)/(% of DMSO control 3B)” value in test [1] (setting [3]) is reported as 36 (% of DMSO control 5B)/(% of D. The “TNFα Secretion (% of DMSO control)” value in test [2] (10 μM compound, 1 h, then LPS) is reported as 48 % of DMSO control.
For `C/C(=N\N=C(N)N)c1cccc(C(=O)NCCNC(=O)[C@H](Cc2ccccc2)NC(=O)c2ccc(/C(=N/N=C(N)N)c3ccccc3)cc2)c1.O=C(O)C(F)(F)F.O=C(O)C(F)(F)F` [MES 10091, (E,E)-Bisguanylhydrazone of 1-[(S)-N-(4-benzoylbenzoyl)-2-amino-3-phenylpropanoyl]-4-(3-acetylbenzoyl)-1,4-diazabutane bis trifluoroacetate], the figures for the “Luciferase 5B/3B (% of DMSO control 5B)/(% of DMSO control 3B)” value in test [1] (1 μM compound (Table 11)), in test [1] (3 μM compound (Table 11)) and in test [1] (10 μM compound (Table 11)) were 113 (% of DMSO control 5B)/(% of D, 68 (% of DMSO control 5B)/(% of D and 73 (% of DMSO control 5B)/(% of D, respectively. The results for the “TNFα Secretion (% of DMSO control)” value in test [2] (1 μM compound (Table 11)), in test [2] (3 μM compound (Table 11)) and in test [2] (10 μM compound (Table 11)) were 97 % of DM80 control, 41 % of DM80 control and 22 % of DM80 control, respectively.
For the molecule `CC(C)CC(NC(=O)c1ccc(C(=NNC(=N)N)c2ccccc2)cc1)C(=O)N1CCN(C(=O)C(Cc2ccc3ccccc3c2)NC(=O)c2ccc(C(=NNC(=N)N)c3ccccc3)cc2)CC1` (mixture of isomers) [MES 10195], the “Luciferase 5B (% of DMSO control)” value in test [1] (10 μM compound) is 36 % of DMSO control. Further, the “Luciferase 5B/3B (% of DMSO control 5B)/(% of DMSO control 3B)” value in test [1] (setting [3]) is recorded as 82 (% of DMSO control 5B)/(% of DMSO control 3B). Moreover, in test [2] (10 μM compound, 1 h, then LPS), the “TNFα Secretion (% of DMSO control)” value is 33 % of DMSO control.
With `CC(=NNC(=N)N)c1cccc(C(=O)N[C@@H](CC(C)C)C(=O)N2CCN(C(=O)[C@H](Cc3ccccc3)NC(=O)c3ccc(C(=O)c4ccccc4)cc3)CC2)c1.O=C(O)C(F)(F)F` [MES 10173, (4-E)-Guanylhydrazone of 1-[(S)-N-(4-benzoylbenzoyl)-2-amino-3-phenylpropanoyl]-4-[(2S)-N-(3-acetylbenzoyl)-2-amino-4-methylpentanoyl]-piperazine trifluoroaceteate], the “Luciferase 5B (% of DMSO control)” value in test [1] (10 μM compound) is 26 % of DMSO control. In addition, the “TNFα Secretion (% of DMSO control)” value in test [2] (10 μM compound, 1 h, then LPS) was 42 % of DMSO control.
For `CC(C)CC(NC(=O)c1ccc(C(=NNC(=N)N)c2ccccc2)cc1)C(=O)N1CCN(C(=O)C(CCc2ccccc2)NC(=O)c2ccc(C(=NNC(=N)N)c3ccccc3)cc2)CC1` (mixture of isomers) [MES 10194], the “Luciferase 5B (% of DMSO control)” value in test [1] (10 μM compound) is on record as 34 % of DMSO control. In addition, in test [1] (setting [3]), the “Luciferase 5B/3B (% of DMSO control 5B)/(% of DMSO control 3B)” value was 49 (% of DMSO control 5B)/(% of DMSO control 3B). Moreover, the “TNFα Secretion (% of DMSO control)” value in test [2] (10 μM compound, 1 h, then LPS) is given as 22 % of DMSO control.
On to `CC(C)CC(NC(=O)c1ccccc1)C(=O)N1CCN(C(=O)C(Cc2ccccc2)NC(=O)c2ccc(C(=NNC(=N)N)c3ccccc3)cc2)CC1` (mixture of isomers) [MES 10222], for which the “Luciferase 5B (% of DMSO control)” value in test [1] (10 μM compound) was 36 % of DMSO control. Moreover, the “Luciferase 5B/3B (% of DMSO control 5B)/(% of DMSO control 3B)” value in test [1] (setting [3]) is listed as 49 (% of DMSO control 5B)/(% of D. For the same molecule, the “TNFα Secretion (% of DMSO control)” value in test [2] (10 μM compound, 1 h, then LPS) was 49 % of DMSO control.
Take `CC(C)C[C@H](NC(=O)c1ccc(C(=NNC(=N)N)c2ccccc2)cc1)C(=O)N1CCN(C(=O)[C@H](Cc2ccccc2)NC(=O)c2ccc(C(=O)c3ccccc3)cc2)CC1.O=C(O)C(F)(F)F` [MES 10168, (4-E)-Guanylhydrazone of 1-[(S)-N-(4-benzoylbenzoyl)-2-amino-3-phenylpropanoyl]-4-[(2S)-N-(4-benzoylbenzoyl)-2-amino-4-methylpentanoyl]-1,4-piperazine trifluoroacetate]: the “Luciferase 5B (% of DMSO control)” value in test [1] (10 μM compound) is reported as 104 % of DMSO control. Also, in test [1] (setting [3]), the “Luciferase 5B/3B (% of DMSO control 5B)/(% of DMSO control 3B)” value was 127 (% of DMSO control 5B)/(% of DMSO control 3B). In test [2] (10 μM compound, 1 h, then LPS), the “TNFα Secretion (% of DMSO control)” value is given as 35 % of DMSO control.
For `CC(C)CC(NC(=O)c1ccc(C(=NNC(=N)N)c2ccccc2)cc1)C(=O)N1CCN(C(=O)C(Cc2ccccc2)NC(=O)c2ccccc2)CC1` (centres unmarked) [MES 10247] the same measures were 37 % of DMSO control, 41 (% of DMSO control 5B)/(% of D and 39 % of DMSO control.
For `CC(=NNC(=N)N)c1cccc(C(=O)NC(CC(C)C)C(=O)N2CCN(C(=O)C(Cc3ccc(-c4ccccc4)cc3)NC(=O)c3ccc(C(=NNC(=N)N)c4ccccc4)cc3)CC2)c1` (mixture of isomers) [MES 10259] the same measures were 22 % of DMSO control, 38 (% of DMSO control 5B)/(% of DMSO control 3B) and 36 % of DMSO control.
In the case of `C/C(=N\NC(=N)N)c1cccc(C(=O)N[C@@H](CC(C)C)C(=O)N2CCN(C(=O)[C@H](Cc3ccccc3)NCc3ccccc3)CC2)c1` [MES 10241], the “Luciferase 5B (% of DMSO control)” value in test [1] (10 μM compound) is 68 % of DMSO control. For the same molecule, the “Luciferase 5B/3B (% of DMSO control 5B)/(% of DMSO control 3B)” value in test [1] (setting [3]) is on record as 90 (% of DMSO control 5B)/(% of D. Further, in test [2] (10 μM compound, 1 h, then LPS), the “TNFα Secretion (% of DMSO control)” value is listed as 100 % of DMSO control.
Take `CC(=NN=C(N)N)c1cccc(C(=O)NC(CC(C)C)C(=O)NCCCNC(=O)C(Cc2ccccc2)NC(=O)c2ccc(C(=NN=C(N)N)c3ccccc3)cc2)c1` (mixture of isomers) [MES 11562]: in test [1], the “effect on luciferase activity” value is listed as “decrease TNFα secretion”. For the same molecule, in test [1] (10 μM compound), the “Luciferase 5B (% of DMSO control)” value is reported as 44 % of DMSO control. Besides, the “Luciferase 5B/3B (% of DMSO control 5B)/(% of DMSO control 3B)” value in test [1] (setting [3]) is given as 38 (% of DMSO control 5B)/(% of D. Moreover, in test [2] (10 μM compound, 1 h, then LPS), the “TNFα Secretion (% of DMSO control)” value is recorded as 50 % of DMSO control. In addition, in test [2], the “effect on amount of secreted TNFα” value is reported as “decreased the amount of secreted TNFα”.
For the molecule “(Z,Z)-Bisguanylhydrazone of 1-[(S)-N-(4-benzoylbenzoyl)-2-amino-3-phenylpropanoyl]-4-[(2S)-N-(4-benzoylbenzoyl)-2-amino-4-methylpentanoyl]-1,4-piperazine bis trifluoroacetate [MES 10165]”, the “effect on luciferase activity” value in test [1] is on record as “inhibited TNFα secretion”. For the same molecule, the “Luciferase 5B (% of DMSO control)” value in test [1] (10 μM compound) is recorded as 37 % of DMSO control. Also, in test [1] (setting [3]), the “Luciferase 5B/3B (% of DMSO control 5B)/(% of DMSO control 3B)” value is 63 (% of DMSO control 5B)/(% of DMSO control 3B). Further, the “TNFα Secretion (% of DMSO control)” value in test [2] (10 μM compound, 1 h, then LPS) is 36 % of DMSO control. Moreover, in test [2], the “effect on amount of secreted TNFα” value is “inhibited TNFα secretion”.
Consider `C/C(=N\NC(=N)N)c1cccc(C(=O)N[C@@H](CC(C)C)C(=O)N2CCN(C(=O)[C@H](Cc3ccccc3)NCc3ccc(I)cc3)CC2)c1` [MES 10242], for which, in test [1] (10 μM compound), the “Luciferase 5B (% of DMSO control)” value is on record as 53 % of DMSO control. In addition, the “Luciferase 5B/3B (% of DMSO control 5B)/(% of DMSO control 3B)” value in test [1] (setting [3]) is recorded as 50 (% of DMSO control 5B)/(% of D. Further, the “TNFα Secretion (% of DMSO control)” value in test [2] (10 μM compound, 1 h, then LPS) is listed as 67 % of DMSO control.
In the case of `CC(C)CC(NC(=O)c1ccc(C(=NNC(=N)N)c2ccccc2)cc1)C(=O)N1CCN(C(=O)C(Cc2cccc3ccccc23)NC(=O)c2ccc(C(=NNC(=N)N)c3ccccc3)cc2)CC1` (mixture of isomers) [MES 10191], the “Luciferase 5B (% of DMSO control)” value in test [1] (10 μM compound) is 46 % of DMSO control. Besides, in test [1] (setting [3]), the “Luciferase 5B/3B (% of DMSO control 5B)/(% of DMSO control 3B)” value is given as 86 (% of DMSO control 5B)/(% of DMSO control 3B). The “TNFα Secretion (% of DMSO control)” value in test [2] (10 μM compound, 1 h, then LPS) is recorded as 22 % of DMSO control.
For `C/C(=N\NC(=N)N)c1cccc(C(=O)N[C@@H](CC(C)C)C(=O)N2CCN(C(=O)[C@H](Cc3ccccc3)NC(=O)c3ccc(OCc4ccccc4)cc3)CC2)c1` [MES 10307] the same measures were 38 % of DMSO control, 40 (% of DMSO control 5B)/(% of D and 45 % of DMSO control.
In the same order, the values of `O=C(N[C@@H](Cc1ccccc1)C(=O)N1CCN(C(=O)CCC(=O)N2CCN(c3ccccc3)CC2)CC1)c1ccc(C(=O)c2ccccc2)cc1` [MES 10229] are 31 % of DMSO control, 49 (% of DMSO control 5B)/(% of D and 65 % of DMSO control.
